Counter-ions that a name gives are not always drawn.
Assays:
[1] = sulfonic acid derivative formed by reaction of epinephrine with sodium bisulfite; cited from earlier work
[2] = senior formulations 1.1 mg/mL, E:S 0.34, pH 3.9, 60° C., 28 days; vs epinephrine base
[3] = HPIC for determination of sodium metabisulfite as sulfite in stored formulations; assay type: physicochemical; settings: after 28 days at 60° C., senior formulation 1.1 mg/mL
Description: Epinephrine formulations were diluted 1:100 (formulations with 1.67 mg/mL Na2S2O5), 1:50 (formulations with 0.95 mg/mL and 0.48 mg/mL Na2S2O5) and 1:25 (formulation with 0.16 mg/mL Na2S2O5) in water containing 0.37% formaldehyde. Chromatographic separation was conducted on a Dionex Ion chromatograph ICS3000. 50 μl sample were applied on a HPIC column (AS4aSC, 4 mm×250 mm Thermo Scientific) using a guard column (AG4aSC, 4 mm×50 mm Thermo Scientific). Chromatographic separation was conducted in Eluent A (1.3 mM sodium hydrogen carbonate and 1.4 mM sodium carbonate in water) at 30° C. over 20 min at a flow rate of 2 mL/min. Conductivity detection with suppressor technology was used at a cell temperature of 35° C.

CNCC(c1ccc(O)c(O)c1)S(=O)(=O)O (stereo not shown) [ESA, epinephrine sulfonic acid]
biological activity [1]: biologically inactive

CNC[C@H](O)c1ccc(O)c(O)c1 [epinephrine tartrate]
D-enantiomer formation [2]: significantly reduced

O=S([O-])S(=O)(=O)[O-].[Na+].[Na+] [sodium metabisulfite]
sodium metabisulfite starting content degraded ([3]; at E:S=1.2): > 70% | sodium metabisulfite starting content degraded ([3]; at E:S=3): > 90%

From patent US20210205238A1, “STABILIZED INJECTABLE PHARMACEUTICAL COMPOSITION OF L-EPINEPHRINE” (MERCK PATENT GMBH, priority 2017, published 2021)
